Consider 24 compounds from ChEMBL document CHEMBL4196047, “Discovery and evolution of aloperine derivatives as novel anti-filovirus agents through targeting entry stage” (Eur J Med Chem, 2018).

The source made the active and inactive calls. The calls are words filed in the database; no cut-off is given here.

Series [1] deals with Vesicular stomatitis virus. The series is described as follows: microbe, parasite or virus in culture. The class given is functional, organism-based. The note with it: HEK-293T.
The test system of another series is Ebolavirus. The series is described as follows: microbe, parasite or virus in culture. The class given is functional, cell-based. Conditions: Orthoebolavirus, HEK-293T.
Series [2] can be described thus: in vitro. The note with it: human, HEK293T cells.
Series [3] can be described thus: in vitro. The note with it: human, HEK293T cells. The source holds these as a separate data set.
Series [4] in a line: in vitro. The note with it: human, HEK293T cells. This is another data set of the same source.
In a further series the test system is Marburgvirus. The series is described as follows: microbe, parasite or virus in culture. The class given is functional, organism-based. The note with it: Orthomarburgvirus, HEK-293T.
The test system of another series is HEK-293T. The series is described as follows: Inhibition of endosomal acidification in HEK293T cells at […] after 1 hr by LysoTracker Red dye-based confocal fluorescence microscopic analysis. Conditions: Homo sapiens. The format is functional, cell-based.

Take `FC(F)(F)Oc1ccc(CN2CCCC3=C[C@H]4C[C@H](CN5CCCC[C@H]45)[C@@H]32)cc1`: the EC50 (in general, the concentration that produces a half-maximal response) in series [1] turned out to be 22.4 µM; in the series on Ebolavirus it was 10.4 µM; in the series on Marburgvirus, 11.9 µM. The selectivity ratio came out at 7.9 in “in vitro [2]” and 6.9 in “in vitro [3]”. The midpoint of cytotoxicity in “in vitro [4]”, the CC50, lay at 82 µM.
Regarding `Clc1ccc(CCCN2CCCC3=C[C@H]4C[C@H](CN5CCCC[C@H]45)[C@@H]32)cc1Cl`, the values for the EC50 (in series [1]; in the series with Ebolavirus) were 23 µM and 5.8 µM, respectively. In “in vitro [2]”, the selectivity ratio stood at 5. For the same compound, half-maximal cytotoxicity in the series “in vitro [4]” (CC50) was put at 29.3 µM.
For the compound `O=C(c1ccc(Cl)c(Cl)c1)N1CCCC2=C[C@H]3C[C@H](CN4CCCC[C@H]34)[C@@H]21`, the EC50 in series [1] came out at 98.6 µM; in the series on Ebolavirus, 49 µM; with Marburgvirus, 80.8 µM. Further, the selectivity ratio in “in vitro [2]” is 4.1; in “in vitro [3]”, 2.5. Half-maximal cytotoxicity in “in vitro [4]” (CC50) was put at 200 µM.
With `Clc1cc(Cl)cc(CN2CCCC3=C[C@H]4C[C@H](CN5CCCC[C@H]45)[C@@H]32)c1`, the EC50 in series [1] came to 34.3 µM; with Ebolavirus it was 8.1 µM; in the series with Marburgvirus, 8.5 µM. Moreover, the figures for the selectivity ratio in “in vitro [2]” and in the series “in vitro [3]” were 10.3 and 9.8, respectively. Moreover, in the series “in vitro [4]”, the CC50 (usually the concentration at which the toxic effect on the cells reaches its halfway point) worked out at 83.5 µM.
With `Fc1ccc(CN2CCCC3=C[C@H]4C[C@H](CN5CCCC[C@H]45)[C@@H]32)cc1`, the values for the half-maximal effective concentration (EC50) (in series [1]; in the series with Ebolavirus; in the series with Marburgvirus) were 107 µM, 17 µM and 21.5 µM, respectively. The figures for the selectivity ratio in the series “in vitro [2]” and in the series “in vitro [3]” were > 11.8 and > 9.3, respectively. Besides, the 50% cytotoxic concentration (CC50) in “in vitro [4]” was > 200 µM.
In the case of `C1=C2CCCN[C@H]2[C@@H]2C[C@H]1[C@H]1CCCCN1C2`, the results for the EC50 (in series [1]; in the series on Ebolavirus; in the series on Marburgvirus) were 103 µM, 12.4 µM and 10.2 µM, respectively. Besides, the selectivity ratio in the series “in vitro [2]” is > 16.1; in “in vitro [3]”, > 19.6. Besides, in the series “in vitro [4]”, the CC50 is > 200 µM.
For the compound `Clc1cc(Cl)cc(CCCN2CCCC3=C[C@H]4C[C@H](CN5CCCC[C@H]45)[C@@H]32)c1`, the 50% effective concentration (EC50) in series [1] turned out to be 19.6 µM; with Ebolavirus, 6.1 µM. The selectivity ratio in “in vitro [2]” worked out at 4.2. In the series “in vitro [4]”, the CC50 amounted to 25.9 µM.
In the case of `Clc1ccc(CN2CCCC3=C[C@H]4C[C@H](CN5CCCC[C@H]45)[C@@H]32)c(Cl)c1`, the half-maximal effective concentration (EC50) stood at 10.6 µM in series [1], 6.6 µM with Ebolavirus and 6.4 µM in the series with Marburgvirus. For the same compound, the selectivity ratio in the series “in vitro [2]” is > 30.3; in the series “in vitro [3]”, > 31.2. Further, the CC50 in the series “in vitro [4]” was > 200 µM.
Consider `COc1cccc(CN2CCCC3=C[C@H]4C[C@H](CN5CCCC[C@H]45)[C@@H]32)c1`, for which the figures for the EC50 (in series [1]; with Ebolavirus; in the series on Marburgvirus) were 59 µM, 12.1 µM and 17.8 µM, respectively. Also, the selectivity ratio in the series “in vitro [2]” was > 16.5; in the series “in vitro [3]”, > 11.2. In “in vitro [4]”, the CC50 is > 200 µM.
Regarding `O=S(=O)(c1cc(Cl)cc(Cl)c1)N1CCCC2=C[C@H]3C[C@H](CN4CCCC[C@H]34)[C@@H]21`, the EC50 was 31.3 µM in series [1], 10.6 µM with Ebolavirus and 27.2 µM in the series on Marburgvirus. Moreover, the selectivity ratio in “in vitro [2]” was > 18.9; in the series “in vitro [3]”, > 7.4. The CC50 in the series “in vitro [4]” is > 200 µM.
In the case of `Clc1ccc(CCN2CCCC3=C[C@H]4C[C@H](CN5CCCC[C@H]45)[C@@H]32)cc1Cl`, the EC50 came to 44 µM in series [1] and 6.8 µM in the series with Ebolavirus. In “in vitro [2]”, the selectivity ratio is 7.6. This compound also showed a CC50 in “in vitro [4]” of 51.5 µM.
Turning to `O=S(=O)(c1ccc(Cl)c(Cl)c1)N1CCCC2=C[C@H]3C[C@H](CN4CCCC[C@H]34)[C@@H]21`, the concentration for a half-maximal effect (EC50) in series [1] is 45.4 µM; with Ebolavirus, 24.1 µM; in the series with Marburgvirus, 10.5 µM. For the same compound, the figures for the selectivity ratio in “in vitro [2]” and in “in vitro [3]” were > 8.3 and > 19, respectively. In addition, the 50% cytotoxic concentration (CC50) in the series “in vitro [4]” is > 200 µM.
As to `Clc1cc(Cl)cc(CCN2CCCC3=C[C@H]4C[C@H](CN5CCCC[C@H]45)[C@@H]32)c1`, the EC50 in series [1] is 42.5 µM; with Ebolavirus, 5.7 µM. The selectivity ratio in the series “in vitro [2]” came out at 9.8. Also, the CC50 in “in vitro [4]” came out at 56 µM.
Regarding `O=C(c1ccc(Cl)cc1)N1CCCC2=C[C@H]3C[C@H](CN4CCCC[C@H]34)[C@@H]21`, the values for the EC50 (in series [1]; in the series with Ebolavirus; with Marburgvirus) were 89.6 µM, 34.1 µM and 112 µM, respectively. Also, the figures for the selectivity ratio in “in vitro [2]” and in “in vitro [3]” were > 5.9 and > 1.8, respectively. Further, in “in vitro [4]”, the CC50 is > 200 µM.
Take `O=C(c1cc(Cl)cc(Cl)c1)N1CCCC2=C[C@H]3C[C@H](CN4CCCC[C@H]34)[C@@H]21`: the EC50 is > 200 µM in series [1], 39.8 µM in the series with Ebolavirus and 35.3 µM in the series on Marburgvirus. In addition, the selectivity ratio in the series “in vitro [2]” was > 5; in the series “in vitro [3]” it was > 5.7. Moreover, the half-maximal cytotoxic concentration (CC50) in the series “in vitro [4]” is > 200 µM.
With `O=S(=O)(c1cccs1)N1CCCC2=C[C@H]3C[C@H](CN4CCCC[C@H]34)[C@@H]21`, the values for the EC50 (in series [1]; in the series with Ebolavirus; in the series with Marburgvirus) were > 200 µM, 33.2 µM and 62.4 µM, respectively. Besides, the selectivity ratio in “in vitro [2]” is > 6; in “in vitro [3]”, > 3.2. The half-maximal cytotoxic concentration (CC50) in “in vitro [4]” is > 200 µM.
Regarding `N#Cc1cccc(S(=O)(=O)N2CCCC3=C[C@H]4C[C@H](CN5CCCC[C@H]45)[C@@H]32)c1`, the half-maximal effective concentration (EC50) was > 200 µM in series [1], 69.4 µM in the series with Ebolavirus and 70.7 µM in the series on Marburgvirus. Also, the selectivity ratio was > 2.9 in the series “in vitro [2]” and > 2.8 in “in vitro [3]”. Moreover, the CC50 in “in vitro [4]” was > 200 µM.
Consider `Clc1ccc(CCCN2CCCC3=C[C@H]4C[C@H](CN5CCCC[C@H]45)[C@@H]32)cc1`, for which the EC50 in series [1] was found to be 49.9 µM; in the series on Ebolavirus it was 7.1 µM. In the series “in vitro [2]”, the selectivity ratio was found to be 10.4. In “in vitro [4]”, this compound gave a CC50 of 74.1 µM.
As to `Cl.N`, the inhibition entry with HEK-293T was “Active”.
On to `C1=C2CCCN(Cc3ccccc3)[C@H]2[C@@H]2C[C@H]1[C@H]1CCCCN1C2`, for which the half-maximal effective concentration (EC50) is 28.3 µM in series [1], 15.2 µM in the series with Ebolavirus and 22 µM in the series on Marburgvirus. Also, the selectivity ratio in “in vitro [2]” worked out at 11; in the series “in vitro [3]”, 7.6. Further, the midpoint of cytotoxicity in “in vitro [4]”, the CC50, lay at 168 µM.
Take `Clc1ccc(CN2CCCC3=C[C@H]4C[C@H](CN5CCCC[C@H]45)[C@@H]32)cc1`: the EC50 in series [1] worked out at 77.8 µM; in the series with Ebolavirus, 11.9 µM; in the series on Marburgvirus, 9.8 µM. In addition, the selectivity ratio in “in vitro [2]” was > 16.8; in “in vitro [3]”, > 20.4. The CC50 in “in vitro [4]” is > 200 µM.
As to `Cc1ccccc1CN1CCCC2=C[C@H]3C[C@H](CN4CCCC[C@H]34)[C@@H]21`, the figures for the half-maximal effective concentration (EC50) (in series [1]; with Ebolavirus; in the series with Marburgvirus) were 39 µM, 16.6 µM and 15 µM, respectively. In addition, the figures for the selectivity ratio in “in vitro [2]” and in “in vitro [3]” were 9.7 and 10.8, respectively. Moreover, the CC50 in the series “in vitro [4]” worked out at 162 µM.
Consider `Clc1ccc(CCN2CCCC3=C[C@H]4C[C@H](CN5CCCC[C@H]45)[C@@H]32)cc1`, for which the 50% effective concentration (EC50) in series [1] turned out to be 52.2 µM; in the series on Ebolavirus, 6 µM. For the same compound, the selectivity ratio in “in vitro [2]” was found to be 13.9. This compound had a CC50 in the series “in vitro [4]” of 83.3 µM.
Consider `O=S(=O)(c1ccc(Cl)cc1)N1CCCC2=C[C@H]3C[C@H](CN4CCCC[C@H]34)[C@@H]21`, for which the values for the EC50 (in series [1]; with Ebolavirus; in the series with Marburgvirus) were 104 µM, 21.8 µM and 18.8 µM, respectively. Further, the selectivity ratio in the series “in vitro [2]” is > 9.2; in “in vitro [3]”, > 10.6. Moreover, the CC50 in “in vitro [4]” was > 200 µM.
